Reference: ChEMBL document CHEMBL4138123, “Design, synthesis and biological evaluation of novel pyrazolochalcones as potential modulators of PI3K/Akt/mTOR pathway and inducers of apoptosis in breast cancer cells” (Eur J Med Chem, 2017)
Calls of active or inactive are those of the source. The rule behind the calls is not given here.

Key:
SNB-75 [1] = test: Cytotoxicity against human SNB75 cells assessed as cell growth at 0.1 uM after 48 hrs by sulforhodamine B assay relative to control; format: functional; details: SNB-75, 48 h, read-out: Activity
SNB-75 [2] = test: Cytotoxicity against human SNB75 cells assessed as cell growth at 0.01 uM after 48 hrs by sulforhodamine B assay relative to control; format: functional; details: SNB-75, 48 h, read-out: Activity
SNB-75 [3] = test: Cytotoxicity against human SNB75 cells assessed as cell growth at 100 uM after 48 hrs by sulforhodamine B assay relative to control; format: functional; details: SNB-75, 48 h, read-out: Activity
CAKI-1 [4] = test: Cytotoxicity against human Caki1 cells assessed as cell growth at 0.1 uM after 48 hrs by sulforhodamine B assay relative to control; format: functional; details: CAKI-1, 48 h, read-out: Activity
SK-OV-3 = test: Cytotoxicity against human SKOV3 cells assessed as cell growth at 100 uM after 48 hrs by sulforhodamine B assay relative to control; format: functional; details: SK-OV-3, 48 h, read-out: Activity
CAKI-1 [5] = test: Cytotoxicity against human Caki1 cells assessed as cell growth at 100 uM after 48 hrs by sulforhodamine B assay relative to control; format: functional; details: CAKI-1, 48 h, read-out: Activity
SF-295 [6] = test: Cytotoxicity against human SF295 cells assessed as growth inhibition after 48 hrs by sulforhodamine B assay; format: functional; details: SF-295, 48 h
CAKI-1 [7] = test: Cytotoxicity against human Caki1 cells assessed as cell growth at 1 uM after 48 hrs by sulforhodamine B assay relative to control; format: functional; details: CAKI-1, 48 h, read-out: Activity
CAKI-1 [8] = test: Cytotoxicity against human Caki1 cells assessed as cell growth at 0.01 uM after 48 hrs by sulforhodamine B assay relative to control; format: functional; details: CAKI-1, 48 h, read-out: Activity
SNB-75 [9] = test: Cytotoxicity against human SNB75 cells assessed as cell growth at 10 uM after 48 hrs by sulforhodamine B assay relative to control; format: functional; details: SNB-75, 48 h, read-out: Activity
SF-295 [10] = test: Cytotoxicity against human SF295 cells assessed as cell growth at 100 uM after 48 hrs by sulforhodamine B assay relative to control; format: functional; details: SF-295, 48 h, read-out: Activity
MCF7 [11] = test: Induction of apoptosis in human MCF7 cells assessed as late apoptotic cells at 2 uM after 24 hrs by Annexin-V FITC/propidium iodide staining-based FACS analysis (reference value: 5.4%); format: functional
SF-295 [12] = test: Cytotoxicity against human SF295 cells assessed as cell growth at 1 uM after 48 hrs by sulforhodamine B assay relative to control; format: functional; details: SF-295, 48 h, read-out: Activity
SF-295 [13] = test: Cytotoxicity against human SF295 cells assessed as cell growth at 0.1 uM after 48 hrs by sulforhodamine B assay relative to control; format: functional; details: SF-295, 48 h, read-out: Activity
SNB-75 [14] = test: Cytotoxicity against human SNB75 cells assessed as growth inhibition after 48 hrs by sulforhodamine B assay; format: functional; details: SNB-75, 48 h
SF-295 [15] = test: Cytotoxicity against human SF295 cells assessed as cell growth at 0.01 uM after 48 hrs by sulforhodamine B assay relative to control; format: functional; details: SF-295, 48 h, read-out: Activity
SF-295 [16] = test: Cytotoxicity against human SF295 cells assessed as cell growth at 10 uM after 48 hrs by sulforhodamine B assay relative to control; format: functional; details: SF-295, 48 h, read-out: Activity
CAKI-1 [17] = test: Cytotoxicity against human Caki1 cells assessed as growth inhibition after 48 hrs by sulforhodamine B assay; format: functional; details: CAKI-1, 48 h
MCF7 [18] = test: Downregulation of Akt protein expression in human MCF7 cells at 2 uM after 24 hrs by Western blot analysis; format: functional, cell-based
MCF7 [19] = test: Induction of intrinsic apoptosis in human MCF7 cells assessed as effect on mitochondrial membrane depolarization by measuring mean fluorescence intensity at 2 uM after 18 hrs by DiOC6 staining-based FACS analysis (reference value: 463); format: functional
MCF7 [20] = test: Downregulation of Bcl-2 mRNA expression in human MCF7 cells at 2 uM after 48 hrs by qRT-PCR analysis; format: functional, cell-based
MCF7 [21] = test: Inhibition of PI3K in human MCF7 cells assessed as downregulation of phosphorylated Akt levels at 2 uM after 24 hrs by Western blot analysis; format: cell-based
CAKI-1 [22] = test: Cytotoxicity against human Caki1 cells assessed as cell growth at 10 uM after 48 hrs by sulforhodamine B assay relative to control; format: functional; details: CAKI-1, 48 h, read-out: Activity
MCF7 [23] = test: Cell cycle arrest in human MCF7 cells assessed as accumulation at G0/G1 phase at 2 uM after 24 hrs by flow cytometric analysis (reference value: 18.4%); format: functional
SNB-75 [24] = test: Cytotoxicity against human SNB75 cells assessed as cell growth at 1 uM after 48 hrs by sulforhodamine B assay relative to control; format: functional; details: SNB-75, 48 h, read-out: Activity
LOX IMVI [25] = test: Cytotoxicity against human LOXIMVI cells assessed as cell growth at 100 uM after 48 hrs by sulforhodamine B assay relative to control; format: functional; details: read-out: Activity
SK-MEL-2 [26] = test: Cytotoxicity against human SK-MEL-2 cells assessed as cell growth at 100 uM after 48 hrs by sulforhodamine B assay relative to control; format: functional; details: SK-MEL-2, 48 h, read-out: Activity
SK-MEL-2 [27] = test: Cytotoxicity against human SK-MEL-2 cells assessed as cell growth at 1 uM after 48 hrs by sulforhodamine B assay relative to control; format: functional; details: SK-MEL-2, 48 h, read-out: Activity
LOX IMVI [28] = test: Cytotoxicity against human LOXIMVI cells assessed as cell growth at 0.1 uM after 48 hrs by sulforhodamine B assay relative to control; format: functional; details: read-out: Activity
LOX IMVI [29] = test: Cytotoxicity against human LOXIMVI cells assessed as cell growth at 10 uM after 48 hrs by sulforhodamine B assay relative to control; format: functional; details: read-out: Activity
LOX IMVI [30] = test: Cytotoxicity against human LOXIMVI cells assessed as cell growth at 0.01 uM after 48 hrs by sulforhodamine B assay relative to control; format: functional; details: read-out: Activity
LOX IMVI [31] = test: Cytotoxicity against human LOXIMVI cells assessed as cell growth at 1 uM after 48 hrs by sulforhodamine B assay relative to control; format: functional; details: read-out: Activity
SK-MEL-2 [32] = test: Cytotoxicity against human SK-MEL-2 cells assessed as cell growth at 10 uM after 48 hrs by sulforhodamine B assay relative to control; format: functional; details: SK-MEL-2, 48 h, read-out: Activity
HOP-92 [33] = test: Cytotoxicity against human HOP92 cells assessed as cell growth at 10 uM after 48 hrs by sulforhodamine B assay relative to control; format: functional; details: HOP-92, 48 h, read-out: Activity
HOP-92 [34] = test: Cytotoxicity against human HOP92 cells assessed as cell growth at 1 uM after 48 hrs by sulforhodamine B assay relative to control; format: functional; details: HOP-92, 48 h, read-out: Activity
HOP-92 [35] = test: Cytotoxicity against human HOP92 cells assessed as cell growth at 100 uM after 48 hrs by sulforhodamine B assay relative to control; format: functional; details: HOP-92, 48 h, read-out: Activity
SK-MEL-2 [36] = test: Cytotoxicity against human SK-MEL-2 cells assessed as cell growth at 0.01 uM after 48 hrs by sulforhodamine B assay relative to control; format: functional; details: SK-MEL-2, 48 h, read-out: Activity
HOP-92 [37] = test: Cytotoxicity against human HOP92 cells assessed as growth inhibition after 48 hrs by sulforhodamine B assay; format: functional; details: HOP-92, 48 h
SK-MEL-2 [38] = test: Cytotoxicity against human SK-MEL-2 cells assessed as cell growth at 0.1 uM after 48 hrs by sulforhodamine B assay relative to control; format: functional; details: SK-MEL-2, 48 h, read-out: Activity
HOP-92 [39] = test: Cytotoxicity against human HOP92 cells assessed as cell growth at 0.1 uM after 48 hrs by sulforhodamine B assay relative to control; format: functional; details: HOP-92, 48 h, read-out: Activity
HOP-92 [40] = test: Cytotoxicity against human HOP92 cells assessed as cell growth at 0.01 uM after 48 hrs by sulforhodamine B assay relative to control; format: functional; details: HOP-92, 48 h, read-out: Activity

| Compound | growth at 0.1 µM (CAKI-1 [4]) | growth at 100 µM (SK-OV-3) | growth at 100 µM (CAKI-1 [5]) | growth at 1 µM (CAKI-1 [7]) | growth at 0.01 µM (CAKI-1 [8]) | Activity (MCF7 [11]) | LC50 (CAKI-1 [17]) | TGI (CAKI-1 [17]) | Activity (MCF7 [18]) | Flu intensity (MCF7 [19]) | Activity (MCF7 [20]) | phospho-Akt downregulation (active/inactive) (MCF7 [21]) | growth at 10 µM (CAKI-1 [22]) | Activity (MCF7 [23]) | growth at 100 µM (LOX IMVI [25]) | growth at 100 µM (SK-MEL-2 [26]) | growth at 1 µM (SK-MEL-2 [27]) | growth at 0.1 µM (LOX IMVI [28]) | growth at 10 µM (LOX IMVI [29]) | growth at 0.01 µM (LOX IMVI [30]) | other results |
| --- | --- | --- | --- | --- | --- | --- | --- | --- | --- | --- | --- | --- | --- | --- | --- | --- | --- | --- | --- | --- | --- |
| COc1ccc(-c2cc(/C=C/C(=O)c3ccc(OC)c(OC)c3)[nH]n2)cc1 | 96% | -95% | -70% | 77% | 98% | 4.4% | 7.96 µM | 3.52 µM | Active | 355 | Active | Active | -64% | 15.3% | – | – | – | – | – | – | growth at 0.1 µM (SNB-75 [1]): 79%; growth at 0.01 µM (SNB-75 [2]): 88%; growth at 100 µM (SNB-75 [3]): -100%; GI50 (SF-295 [6]): 2.08 µM; LC50 (SF-295 [6]): 22 µM; TGI (SF-295 [6]): 5.37 µM; growth at 10 µM (SNB-75 [9]): -53%; growth at 100 µM (SF-295 [10]): -83%; growth at 1 µM (SF-295 [12]): 88%; growth at 0.1 µM (SF-295 [13]): 97%; GI50 (SNB-75 [14]): 1.55 µM; LC50 (concentration killing 50% of cells) (SNB-75 [14]): 9.51 µM; TGI (SNB-75 [14]): 3.84 µM; growth at 0.01 µM (SF-295 [15]): 98%; growth at 10 µM (SF-295 [16]): -33%; GI50 (CAKI-1 [17]): 1.55 µM; growth at 1 µM (SNB-75 [24]): 74% |
| COc1cc(C(=O)/C=C/c2cc(-c3cc(OC)c(OC)c(OC)c3)n[nH]2)cc(OC)c1OC | 89% | -100% | -94% | 82% | 91% | 11.2% | 35.5 µM | 10.9 µM | Active | 637 | Active | Active | 4% | 16.6% | -95% | -96% | 97% | 101% | -95% | 102% | growth at 1 µM (LOX IMVI [31]): 82%; growth at 10 µM (SK-MEL-2 [32]): -63%; growth at 10 µM (HOP-92 [33]): -67%; growth at 1 µM (HOP-92 [34]): 1%; growth at 100 µM (HOP-92 [35]): -95%; growth at 0.01 µM (SK-MEL-2 [36]): 104%; TGI (HOP-92 [37]): 1.02 µM; CC50 (HOP-92 [37]; read-out: LC50 (the source's name)): 5.54 µM; growth at 0.1 µM (SK-MEL-2 [38]): 111%; growth at 0.1 µM (HOP-92 [39]): 68%; growth at 0.01 µM (HOP-92 [40]): 86% |
| COc1ccc(C(=O)/C=C/c2cc(-c3cc(OC)c(OC)c(OC)c3)n[nH]2)cc1OC | 99% | -98% | -91% | 94% | 97% | 4.2% | 19.4 µM | 5.46 µM | Active | 294 | Active | Active | -33% | 30.8% | -79% | -96% | 98% | 92% | -93% | 92% | growth at 1 µM (LOX IMVI [31]): 73%; growth at 10 µM (SK-MEL-2 [32]): -81%; growth at 0.01 µM (SK-MEL-2 [36]): 86%; growth at 0.1 µM (SK-MEL-2 [38]): 91% |
